Among the test systems are SNB-19 CNS; SR leukemia; LOX IMVI melanoma; HL-60(TB) leukemia; MALME-3M melanoma; CAKI-1 renal; A498 renal; SF-539 CNS; NCI-H522 lung; OVCAR-8 ovarian.
Holding throughout (experiment): NCI tumour cell line growth inhibition, 48 h

Consider eleven compounds from PubChem BioAssay (NCI).

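Test compounds were applied to cells in 96-well plates for 48 hours at 5 doses. Here, GI50 denotes the concentration required for 50% inhibition of growth. TGI: concentration producing complete growth inhibition.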 Some results are limits rather than exact numbers.

On to `N#CC(C(=O)C(=O)C(C#N)c1ccc(Br)cc1)c1ccc(Br)cc1` (centres undefined), for which the TGI was 30.7 µM in the assay on SNB-19 CNS; more than 100 µM in the assay with SR leukemia; 23.6 µM in the assay with LOX IMVI melanoma; 20.6 µM in the assay on HL-60(TB) leukemia; 27.7 µM with MALME-3M melanoma; 37.1 µM in the assay with CAKI-1 renal. The TGI with A498 renal turned out to be 29.3 µM; in the assay on SF-539 CNS, 29.4 µM.
Regarding `OCC1OC(c2nc(C3=NCCCN3)cs2)C(O)C1O` (centres undefined), the TGI with SNB-19 CNS, in the assay with LOX IMVI melanoma, in the assay on HL-60(TB) leukemia, in the assay with NCI-H522 lung, in the assay on MALME-3M melanoma and in the assay on CAKI-1 renal was more than 100 µM each time. Besides, the TGI in the assay with OVCAR-8 ovarian, in the assay on A498 renal and in the assay on SF-539 CNS was more than 100 µM in each case.
`COC(=O)C(Cc1nc2ccc(Cl)cc2[nH]c1=O)/C(=N\N)C(=O)Nc1cc(C)c(Cl)cc1S(=O)(=O)O` (centres undefined): the TGI with SNB-19 CNS, in the assay with SR leukemia, with LOX IMVI melanoma, with NCI-H522 lung, in the assay with MALME-3M melanoma and with CAKI-1 renal was more than 100 µM throughout. Moreover, the TGI with OVCAR-8 ovarian, in the assay with A498 renal and in the assay on SF-539 CNS was more than 100 µM throughout.
For the compound `N#C/C1=C(\N)CCSSSC1`, the TGI with SNB-19 CNS was more than 100 µM; in the assay on SR leukemia, more than 100 µM; in the assay on LOX IMVI melanoma, more than 100 µM; in the assay with NCI-H522 lung, 45.6 µM; in the assay with MALME-3M melanoma, more than 100 µM; in the assay on CAKI-1 renal, more than 100 µM. Also, the TGI in the assay with OVCAR-8 ovarian is 43.2 µM; with A498 renal, 58 µM; in the assay with SF-539 CNS, more than 100 µM.
For `O=C(CC1(O)C(=O)N(Cc2ccccc2)c2ccc(F)cc21)c1ccc(C(=O)NCC2CCC3(CC2)OOC2(CCCCC2)OO3)cc1` (centres undefined), the GI50 in the assay with SNB-19 CNS is 3.44 µM; with LOX IMVI melanoma, 0.0771 µM; in the assay with HL-60(TB) leukemia, 0.349 µM; in the assay with NCI-H522 lung, 0.187 µM; in the assay on MALME-3M melanoma, 0.226 µM; with CAKI-1 renal, 0.464 µM. Further, the GI50 in the assay on OVCAR-8 ovarian is 0.267 µM; in the assay on A498 renal, 1.69 µM; in the assay with SF-539 CNS it was 0.21 µM. The TGI with SNB-19 CNS was determined as 43.5 µM; in the assay on LOX IMVI melanoma, 0.222 µM; in the assay with HL-60(TB) leukemia, 0.999 µM; with NCI-H522 lung it was 0.396 µM; with MALME-3M melanoma it was 0.54 µM; in the assay with CAKI-1 renal it was 0.954 µM. The TGI with OVCAR-8 ovarian was determined as 0.723 µM; in the assay on A498 renal, 3.88 µM; in the assay with SF-539 CNS, 0.541 µM.
As for `O=C1/C(=C/c2ccc(Cl)cc2)CCC1CCN1CCOCC1` (centres undefined), the TGI in the assay on SNB-19 CNS is more than 100 µM; with SR leukemia it was more than 100 µM; with LOX IMVI melanoma it was more than 100 µM; in the assay on HL-60(TB) leukemia, 85.2 µM; in the assay with MALME-3M melanoma, more than 100 µM; with CAKI-1 renal, more than 100 µM. Also, the TGI with OVCAR-8 ovarian, in the assay on A498 renal and in the assay with SF-539 CNS was more than 100 µM each time.
With `O=C(N[C@@H](c1ccc(Cl)c(Cl)c1)C1CNC1)c1ccc2cnccc2c1`, the GI50 in the assay on SNB-19 CNS is 0.649 µM; in the assay with LOX IMVI melanoma, 0.716 µM; in the assay with HL-60(TB) leukemia it was 0.534 µM; in the assay on NCI-H522 lung, 0.721 µM; in the assay with MALME-3M melanoma, 0.138 µM; in the assay with CAKI-1 renal it was 0.068 µM. In addition, the GI50 is 1.45 µM in the assay with OVCAR-8 ovarian, 0.157 µM in the assay on A498 renal and 0.0408 µM in the assay with SF-539 CNS. Moreover, the TGI came to 10.7 µM in the assay with SNB-19 CNS; 3.71 µM in the assay with LOX IMVI melanoma; 3.89 µM in the assay with HL-60(TB) leukemia; 9.2 µM with NCI-H522 lung; 0.7 µM in the assay with MALME-3M melanoma; 2.27 µM in the assay on CAKI-1 renal. The TGI stood at 5.07 µM in the assay with OVCAR-8 ovarian, 1.36 µM in the assay on A498 renal and 0.798 µM in the assay with SF-539 CNS.
For `Nc1c(C(=O)Nc2ccncc2)sc2nc3c(cc12)CCCCCCCC3`, the GI50 in the assay on SNB-19 CNS is 0.96 µM; with SR leukemia, 1.62 µM; with LOX IMVI melanoma it was 0.845 µM; in the assay on HL-60(TB) leukemia, 0.948 µM; in the assay with MALME-3M melanoma, 0.87 µM; in the assay on CAKI-1 renal it was 0.805 µM. For the same compound, the GI50 with OVCAR-8 ovarian is 1.54 µM; with A498 renal it was 0.871 µM; in the assay with SF-539 CNS it was 0.878 µM. The TGI in the assay with SNB-19 CNS came to 1.76 µM; in the assay with SR leukemia, 50 µM; in the assay on LOX IMVI melanoma, 1.56 µM; in the assay with HL-60(TB) leukemia, 2.19 µM; in the assay with MALME-3M melanoma it was 1.66 µM; in the assay on CAKI-1 renal, 1.49 µM. For the same compound, the TGI in the assay on OVCAR-8 ovarian stood at 50 µM; with A498 renal, 1.58 µM; with SF-539 CNS, 1.6 µM.
On to `CC(=O)Oc1c2c(c(O)c3ccccc13)C(n1cnc3c(ncn3C3OC(CO)C4OC(C)(C)OC43)c1=N)CCC2` (centres undefined), for which the TGI with SNB-19 CNS came to 30.3 µM; in the assay on LOX IMVI melanoma, 21 µM; with HL-60(TB) leukemia it was 22.3 µM; in the assay on NCI-H522 lung it was 19.3 µM; in the assay on MALME-3M melanoma, 23.4 µM; in the assay with CAKI-1 renal, 50.1 µM. For the same compound, the TGI in the assay on OVCAR-8 ovarian came to 23.9 µM; in the assay with A498 renal it was 33.3 µM; in the assay on SF-539 CNS it was 32.2 µM.
For the compound `COc1cccc(C2=NC(C(C)C)CO2)c1` (centres undefined), the TGI with SNB-19 CNS, in the assay with LOX IMVI melanoma, in the assay on HL-60(TB) leukemia, with NCI-H522 lung, with MALME-3M melanoma and in the assay on CAKI-1 renal was more than 100 µM throughout. Besides, the TGI with OVCAR-8 ovarian, with A498 renal and in the assay with SF-539 CNS was more than 100 µM throughout.
For the compound `O=C(CSc1nc2ccccc2nc1-c1ccccc1)Nc1ccc(F)cc1`, the GI50 was 34.5 µM with SNB-19 CNS; 68 µM in the assay on LOX IMVI melanoma; 66.9 µM in the assay on HL-60(TB) leukemia; 24.2 µM in the assay with NCI-H522 lung; 17.1 µM with MALME-3M melanoma; more than 100 µM in the assay on CAKI-1 renal. Further, the GI50 was 30 µM in the assay on OVCAR-8 ovarian, 41.7 µM with A498 renal and 18.6 µM with SF-539 CNS. Further, the TGI was more than 100 µM with SNB-19 CNS; more than 100 µM in the assay on LOX IMVI melanoma; more than 100 µM in the assay on HL-60(TB) leukemia; more than 100 µM in the assay on NCI-H522 lung; 54 µM in the assay on MALME-3M melanoma; more than 100 µM with CAKI-1 renal. For the same compound, the TGI is more than 100 µM with OVCAR-8 ovarian, more than 100 µM in the assay with A498 renal and 35.4 µM in the assay on SF-539 CNS.
